Assay results taken from ChEMBL document CHEMBL2016556, “Discovery of novel P3-oxo inhibitor of hepatitis C virus NS3/4A serine protease” (Bioorg Med Chem Lett, 2012).

Tests used:
[1] = Inhibition of Hepatitis C virus genotype 1a NS3/4A protease using Ac-DE-Dap(QXL520)-EE-Abu-psi-COO]-AS-C(5-FAMsp)-NH2 as substrate by FRET analysis; design: species or system Hepatitis C virus subtype 1a
Hepatitis C virus [2] = test: Antiviral activity against Hepatitis C virus genotype 1b infected in HuH7 cells; assay type: functional, organism-based, Hepacivirus hominis; conditions: Huh-7
Hepatitis C virus [3] = test: Antiviral activity against Hepatitis C virus genotype 1a infected in HuH7 cells; assay type: functional, organism-based, Hepacivirus hominis; conditions: subtype 1a, Huh-7
Hepatitis C virus [4] = test: Antiviral activity against Hepatitis C virus genotype 1b expressing wild type NS3/4A protease infected in HuH7 cells; assay type: functional, organism-based, Hepacivirus hominis; conditions: Huh-7
Hepatitis C virus [5] = test: Antiviral activity against Hepatitis C virus genotype 1b expressing NS3/4A protease A156S mutant infected in HuH7 cells; assay type: functional, organism-based, Hepacivirus hominis; conditions: Huh-7
Hepatitis C virus [6] = test: Antiviral activity against Hepatitis C virus genotype 1b expressing NS3/4A protease A156T mutant infected in HuH7 cells; assay type: functional, organism-based, Hepacivirus hominis; conditions: Huh-7
Hepatitis C virus [7] = test: Antiviral activity against Hepatitis C virus genotype 1b expressing NS3/4A protease A156V mutant infected in HuH7 cells; assay type: functional, organism-based, Hepacivirus hominis; conditions: Huh-7
Hepatitis C virus [8] = test: Antiviral activity against Hepatitis C virus genotype 1b expressing NS3/4A protease […] mutant infected in HuH7 cells; assay type: functional, organism-based, Hepacivirus hominis; conditions: Huh-7
Hepatitis C virus [9] = test: Antiviral activity against Hepatitis C virus genotype 1b expressing NS3/4A protease R155K mutant infected in HuH7 cells; assay type: functional, organism-based, Hepacivirus hominis; conditions: Huh-7
Hepatitis C virus [10] = test: Antiviral activity against Hepatitis C virus genotype 1b expressing NS3/4A protease D168A mutant infected in HuH7 cells; conditions: Hepacivirus hominis, Huh-7
[11] = Apparent permeability of the compound at pH 7.05 by PAMPA assay; assay type: ADME
[12] = Oral bioavailability in rat; assay type: ADME, organism-based; conditions: in vivo
[13] = Clearance in rat; assay type: ADME, organism-based; conditions: in vivo

| Structure (SMILES) | IC50 [1] [nM] | EC50 (Hepatitis C virus [2]) [nM] | EC50 (Hepatitis C virus [3]) [nM] | EC50 (Hepatitis C virus [4]) [nM] | EC50 (Hepatitis C virus [5]) [nM] | EC50 (Hepatitis C virus [6]) [nM] | EC50 (Hepatitis C virus [7]) [nM] | EC50 (Hepatitis C virus [8]) [nM] | EC50 (Hepatitis C virus [9]) [nM] | EC50 (Hepatitis C virus [10]) [nM] | Papp [11] [×10⁻⁶ cm/s] | bioavailability [12] [%] | clearance [13] [mL/min/kg] |
| --- | --- | --- | --- | --- | --- | --- | --- | --- | --- | --- | --- | --- | --- |
| COc1ccc2c(O[C@@H]3C[C@H]4C(=O)N[C@]5(C(=O)NS(=O)(=O)C6CC6)C[C@H]5/C=C\CCCCCC(OC(=O)NC(C)(C)C)C(=O)N4C3)cc(-c3nc(C(C)C)cs3)nc2c1C (stereo not given in full) | 31 | 0.8 | 5 | 1.2 | 2.5 | 84.6 | 322 | 1070 | 324 | 462 |  |  |  |
| COc1ccc2c(O[C@@H]3C[C@H]4C(=O)N[C@]5(C(=O)NS(=O)(=O)C6CC6)C[C@H]5/C=C\CCCCCC(OC(=O)OC(C)(C)C)C(=O)N4C3)cc(-c3nc(C(C)C)cs3)nc2c1C (stereo not given in full) | 195 | 39.8 | 50.1 | 63.1 |  |  |  |  |  |  |  |  |  |
| COc1ccc2c(O[C@@H]3C[C@H]4C(=O)N[C@]5(C(=O)NS(=O)(=O)C6CC6)C[C@H]5/C=C\CCCCCC(OC(=O)N5CCCCC5)C(=O)N4C3)cc(-c3nc(C(C)C)cs3)nc2c1C (stereo not given in full) | 56.2 | 3.2 | 10 | 7.1 | 9.7 | 90.2 | 658 | 3980 | 1480 | 2150 |  |  |  |
| CC(C)(C)OC(=O)N[C@H]1CCCCC/C=C\[C@@H]2C[C@@]2(C(=O)NS(=O)(=O)C2CC2)NC(=O)[C@@H]2C[C@@H](OC(=O)N3Cc4cccc(F)c4C3)CN2C1=O [DANOPREVIR] | 0.4 |  |  | 0.1 | 1.6 | 6.8 | 8.3 | 24.5 | 80.8 | 48.5 |  |  |  |
| COc1ccc2c(O[C@@H]3C[C@H]4C(=O)N[C@]5(C(=O)NS(=O)(=O)C6CC6)C[C@H]5/C=C\CCCCCC(OC(=O)n5ccnc5)C(=O)N4C3)cc(-c3nc(C(C)C)cs3)nc2c1C (stereo not given in full) | 3.2 | 0.5 | 0.8 | 0.5 | 0.1 | 2.8 | 3.9 | 151 | 47.9 | 70 | 1.2 | 12 | 53.7 |
| CCOC1CCCCC/C=C\[C@@H]2C[C@@]2(C(=O)NS(=O)(=O)C2CC2)NC(=O)[C@@H]2C[C@@H](Oc3cc(-c4nc(C(C)C)cs4)nc4c(C)c(OC)ccc34)CN2C1=O (stereo not given in full) | 107 | 79.4 | 251 | 63.1 | 29.4 | 397 | 434 | 694 | 3980 | 514 |  |  |  |
| COc1ccc2c(O[C@@H]3C[C@H]4C(=O)N[C@]5(C(=O)NS(=O)(=O)C6CC6)C[C@H]5/C=C\CCCCCC(O)C(=O)N4C3)cc(-c3nc(C(C)C)cs3)nc2c1C (stereo not given in full) | 6.8 | 0.8 | 1 | 1.3 | 0.1 | 2.6 | 3.2 | 45.7 | 60.3 | 62.8 |  |  |  |
